From patent EP4008401A1, “COMPOSITION FOR CARTILAGE REGENERATION PROMOTION” (Suntory Holdings Limited, priority 2019, dated 2021)
Read-outs that look alike come from different tables or passages of the source.

Test system: human synovial cells
Test: Cartilage pellet culture of human synovial cells (weight of cartilage pellets; differentiation into cartilage cells)
Format: cell-based
Conditions: for activity at 5 µM / activity at 50 µM: Homo sapiens, Synovial cell, 504 h, read-out: Rate of increase (%); for Weight of pellets (g) (Ave): cultured three weeks; for weight of the cartilage pellets as compared to the control: result in words
Method: Purchased human synovial cells (available from Toyobo Co., Ltd.; HFLS (Normal), cryopreserved cells (adult); Code No. CA40805a) were seeded into a 150 mm culture dish (available from Corning) at a low density of 50 cells/cm^2 and cultured for 14 days.
The human synovial cells were cultured in the following medium. • α-MEM (available from Nacalai Tesque Inc.) • 10% Fetal bovine serum (available from Sigma-Aldrich) Antibiotic-Antimycotic Mixed Stock Solution (available from Nacalai Tesque Inc.)
Proliferated human synovial cells were detached with Accutase (available from Funakoshi Co., Ltd.), and the medium containing 20 × 10^4 cells was placed in a 15 mL tube made of polypropylene, followed by centrifugation at 1000 × rpm for five minutes. The recovered human synovial cells were cultured in a medium containing a test compound shown in Table 1 for three weeks, and the weight of the resultant cartilage pellets was measured (N = 3, each). The medium containing the test compound was replaced once in two or three days. The test compound was dissolved in the medium using dimethyl sulfoxide (DMSO) (available from Nacalai Tesque Inc.; final concentration: 0.1%) to a final concentration of 50 µM. The test compound was taxifolin (available from Sigma-Aldrich) or hesperetin (available from Funakoshi Co., Ltd.).
The cartilage pellets were cultured in the following medium. The control was cultured by adding DMSO without test compounds to the medium described below (final concentration of DMSO: 0.1%).
DMEM high-glucose (available from Thermo Fisher Scientific) 50 µg/mL L-ascorbic acid 2-phosphate sesquimagnesium salt hydrate (available from Sigma-Aldrich) 40 µg/mL L-proline (available from Sigma-Aldrich) 100 µg/mL Sodium pyruvate (available from Sigma-Aldrich) 50 mg/mL ITS + Premix (available from Corning) 10 ng/mL Transforming growth factor β3 (available from Sigma-Aldrich) 100 nM Dexamethasone (available from Sigma-Aldrich) 50 ng/mL Bone morphogenetic protein 2 (BMP-2) (available from Sigma-Aldrich)
In Table 1, the weight of pellets (g) is the weight of the cartilage pellets (average with N of 3), and SE is the standard error of the weight of pellets. […] A significant difference in the rate of increase (%) determined from the weight of the cartilage pellets relative to the control was tested by Student's t-test, with the significance level being 5% or lower. […]
The test of Example 1 was repeated, except that quercetin (available from Nacalai Tesque Inc.), isorhamnetin (available from Funakoshi Co., Ltd.), or eriodictyol (available from Funakoshi Co., Ltd.) was used as a test compound, and the test compound in the medium was adjusted to a final concentration of 5 µM. […] A significant difference test was performed as in Example 1, with the significance level being 5% or lower.
The test of Example 1 was repeated, except that luteolin (available from Funakoshi Co., Ltd.) or morin (available from Nacalai Tesque Inc.) was used as a test compound, and the test compound in the medium was adjusted to a final concentration of 5 µM. […] A significant difference test was performed as in Example 1, with the significance level being 5% or lower and the marginal significance level being 10% or lower. […]
The test of Example 1 was repeated, except that the compounds shown in Table 4 were used as test compounds and tested with N = 1. […] The final concentration of each of the compounds Nos. 1 to 15 in the medium was adjusted to 5 µM. The final concentration of each of the compounds Nos. 16 to 21 in the medium was adjusted to 50 µM.

[1] = Comparative Example 1, compounds Nos. 1 to 15, 5 µM, weight relative to control taken as 100%, N = 1
[2] = Example 2, test compound 5 µM in medium, average with N of 3
[3] = Example 2, 5 µM, weight of cartilage pellets relative to control taken as 100%, N = 3
[4] = Comparative Example 1, compounds Nos. 16 to 21, 50 µM, weight relative to control taken as 100%, N = 1
[5] = Example 1, test compound 50 µM in medium, average with N of 3
[6] = Example 1, 50 µM, weight of cartilage pellets relative to control taken as 100%, N = 3
[7] = Example 3, test compound 5 µM in medium, average of N of 3
[8] = Example 3, 5 µM, weight of cartilage pellets relative to control taken as 100%, N = 3

With `Oc1cc(O)c2cc(O)c(-c3ccc(O)c(O)c3)[o+]c2c1` [Cyanidin] the activity at 5 µM [1] was 51.2%.
In the case of `Oc1ccc([C@H]2COc3cc(O)ccc3C2)cc1` [Equol], the activity at 5 µM is reported as 81.4%.
`COc1ccc(-c2coc3cc(O)cc(O)c3c2=O)cc1` [Biochaninn A] showed an activity at 5 µM [1] of 21.4%.
`O=C(/C=C/c1ccc(O)cc1)c1ccc(O)cc1O` [Isoliquiritigenin] gave an activity at 5 µM of 82.1%.
With `COc1cc(-c2oc3cc(O)cc(O)c3c(=O)c2O)ccc1O` [Isorham netin, isorhamnetin] the “Weight of pellets (g) (Ave)” value [2] was 5.77 g, the “weight of the cartilage pellets as compared to the control” value (from here on “weight … compared to the control”) (Examples 2 and 3, 5 µM) was “significant increase” and the activity at 5 µM [3] was 159%.
With `Oc1cc(O)c2c(c1)O[C@H](c1ccc(O)c(O)c1)[C@H](O)C2` [Epicatechin] the activity at 50 µM [4] was 117%.
For `O=C1c2c(O)cc(O)cc2O[C@H](c2ccc(O)c(O)c2)[C@H]1O` [Taxifolin, taxifolin], the “weight … compared to the control” value (Example 1, 50 µM) was “significant increase”, the “Weight of pellets (g) (Ave)” value [5] was 5.73 g and the activity at 50 µM [6] was 144%.
For `Oc1cc(O)c2c(c1)OC(c1ccc(O)c(O)c1)C(O)C2` (stereo not drawn) [Catechin], the activity at 50 µM was 112%.
`O=c1c(-c2ccc(O)cc2)coc2cc(O)ccc12` [Daidzein] showed an activity at 5 µM [1] of 100%.
`Oc1cc(O)c2cc(O)c(-c3cc(O)c(O)c(O)c3)[o+]c2c1` [Delphinidin] gave an activity at 5 µM [1] of 41.9%.
Work on `O=C(/C=C/c1ccc(O)c(O)c1)c1c(O)cc(O)cc1O` [3,4,2',4',6'-Pentahydroxychalcon] yielded an activity at 5 µM [1] of 111%.
With `O=c1c(-c2ccc(O)cc2)coc2cc(O)cc(O)c12` [Genistein] the activity at 5 µM [1] was 104%.
With `O=C1C[C@@H](c2ccc(O)cc2)Oc2cc(O)cc(O)c21` [Naringenin] the activity at 50 µM [4] was 117%.
In the case of `O=c1c(-c2ccc(O)c(O)c2)coc2cc(O)ccc12` [7,3',4'-Trihydroxyisoflavone], the activity at 5 µM [1] is reported as 95.3%.
With `O=C1C[C@@H](c2ccc(O)c(O)c2)Oc2cc(O)cc(O)c21` [Eriodictyol, eriodictyol] the “Weight of pellets (g) (Ave)” value [2] was 4.80 g, the “weight … compared to the control” value (Examples 2 and 3, 5 µM) was “significant increase” and the activity at 5 µM [3] was 132%.
In the case of `O=c1c(O)c(-c2ccc(O)c(O)c2)oc2cc(O)cc(O)c12` [Quercetin, quercetin], the “Weight of pellets (g) (Ave)” value [2] is reported as 5.90 g, the “weight … compared to the control” value (Examples 2 and 3, 5 µM) is reported as “significant increase” and the activity at 5 µM [3] is reported as 162%.
With `O=c1cc(-c2ccc(O)c(O)c2)oc2cc(O)cc(O)c12` [Luteolin, luteolin] the “Weight of pellets (g) (Ave)” value [7] was 3.53 g, the “weight … compared to the control” value (Examples 2 and 3, 5 µM) was “increase” and the activity at 5 µM [8] was 128%.
Compound `C[C@@H]1O[C@@H](O[C@H]2C(=O)c3c(O)cc(O)cc3O[C@@H]2c2ccc(O)c(O)c2)[C@H](O)[C@H](O)[C@H]1O` [Astilbin] has an activity at 5 µM [1] of 60.5%.
`O=C(/C=C/c1ccc(O)cc1)c1c(O)cc(O)cc1O` [4,2',4',6'-Tetrahydroxychalcon] gave an activity at 5 µM [1] of 118%.
Compound `O=c1cc(-c2ccc(O)cc2)oc2cc(O)cc(O)c12` [Apigenin] has an activity at 5 µM [1] of 105%.
Work on `COc1ccc(-c2coc3cc(O)ccc3c2=O)cc1O` [Calycosin] yielded an activity at 5 µM [1] of 95.3%.
Work on `COc1ccc(-c2coc3cc(O)ccc3c2=O)cc1` [Formononetin] yielded an activity at 5 µM [1] of 100%.
`O=c1c(O)c(-c2ccc(O)cc2O)oc2cc(O)cc(O)c12` [Morin, morin] was tested, and the “Weight of pellets (g) (Ave)” value [7] was 4.00 g, the “weight … compared to the control” value (Examples 2 and 3, 5 µM) was “significant increase” and the activity at 5 µM [8] was 145%.
For `COc1ccc([C@@H]2CC(=O)c3c(O)cc(O)cc3O2)cc1O` [Hesperetin, hesperetin], the “weight … compared to the control” value (Example 1, 50 µM) was “significant increase”, the “Weight of pellets (g) (Ave)” value [5] was 5.50 g and the activity at 50 µM [6] was 139%.
In the case of `O=c1cc(-c2ccccc2)oc2cc(O)cc(O)c12` [Chrysin], the activity at 50 µM [4] is reported as 108%.
With `O=c1c(O)c(-c2ccc(O)cc2)oc2cc(O)cc(O)c12` [Kaempferol] the activity at 50 µM [4] was 95.8%.
Compound `O=C1c2c(O)cc(O)cc2OCC1c1ccc(O)cc1` (stereo not drawn) [Dihydrogenistein] has an activity at 50 µM [4] of 92.9%.
Work on `O=c1c(O)c(-c2cc(O)c(O)c(O)c2)oc2cc(O)cc(O)c12` [Myricetin] yielded an activity at 5 µM [1] of 69.8%.
